Test results as given in paper PMC12040169 (PLOS Biology, 2025).

Assay: in vitro
Conditions: human, hela cells, % viability

Row | Compound | viability at 28.5 h, 10 µM [%]
1 | O=C1CO[C@H]2CN(S(=O)(=O)c3ccccc3)C[C@H]2N1c1ccccc1 [CBK289236] | 93.7
2 | Cc1ccccc1C1NC(=O)NC2=C1C(=O)N(C)C2 (stereo not shown) [CBK288026] | 96.8
3 | O=[N+]([O-])c1cccc(C(Nc2cccnc2)c2cc(Cl)c3cccnc3c2O)c1 (stereo not shown) [CBK268629] | 93.7
4 | CCOc1ncccc1C(=O)Nc1cnc2c(cnn2C(C)C)c1 [CBK306210] | 102
5 | S=C(Nc1cccc(Cl)c1Cl)Nc1nn(Cc2ccc(Cl)c(Cl)c2)cc1Cl [CBK267109] | 109
6 | O=C(NCCc1ccco1)c1ncoc1-c1ccc(F)cc1 [CBK282247] | 104
7 | c1ccc2c(-c3cn4ccnc4c(NC4CCOCC4)n3)cccc2c1 [CBK038047] | 89.9
8 | N#CCCN(C(=O)Nc1ccc2c(c1)OCCO2)C1CCCCC1 [CBK156364] | 92.3
9 | CN(C)CCN(C)c1nc(-c2ccc(Oc3ccccc3)cc2)cn2ccnc12 [CBK066469] | 99.8
10 | CC[C@H](Cn1c(=O)oc2ccccc21)NC(=O)C1CCCC1 [CBK284542] | 97.2
11 | Nc1cccc(-c2nccnc2NCCc2ccccn2)c1 [CBK037512] | 102
12 | NC(=O)c1ccnc(Cl)c1 [CBK089827] | 96
13 | Cc1ccc([N+](=O)[O-])cc1NC1OCC(O)C(O)C1O (stereo not shown) [CBK262026] | 98.8
14 | Cc1c(C)n(Cc2ccco2)c2ncnc(NCCC(=O)O)c12 [CBK307564] | 86.8
15 | Nc1nc(-c2ccccc2I)n[nH]1 [CBK027413] | 93.4
16 | C=CCN(CC=C)CCOc1c(C)cc(C)cc1Br [CBK266070G] | 110
17 | O=C(COc1ccc([N+](=O)[O-])cc1)Nc1ccc(S(=O)(=O)N2CCCCC2)cc1 [CBK265003] | 119
18 | Cc1nc2cc(OCc3nc(C(=O)N(CCO)CCO)co3)ccc2s1 [CBK307684] | 89.9
19 | CCC(=O)N(C)C(CO)c1cc(OC)ccc1Br (stereo not shown) [CBK304156] | 95.9
20 | Cc1nc(-c2cc(Cl)c(Cl)s2)cs1 [CBK009801] | 84.2
21 | O=C(CO/N=C\c1cccc([N+](=O)[O-])c1)Nc1ccccc1C(=O)O [CBK262051] | 91.7
22 | CC(C)NC(=O)c1sc2ccccc2c1C1CCN(C(=O)COc2ccccc2)C1 (stereo not shown) [CBK285875] | 113

Row | Compound | viability at 28.5 h, 10 µM [%]
23 | O=[N+]([O-])c1ccc2c(c1)oc1ccc(S(=O)(=O)N3CCCC3)cc12 [CBK268512] | 107
24 | COc1ccc(OC[C@@H](N)C(C)C)cc1 [CBK284299] | 93.9
25 | CC(O)c1cc2n(n1)CCN(C(=O)c1csc(Cc3ccccc3)n1)C2 (stereo not shown) [CBK307437] | 98.1
26 | O=C(NCCc1c[nH]c2ccc(Cl)cc12)c1ccc(Cl)cc1Br [CBK159755] | 96.3
27 | Cc1cn(CC(=O)N2CCN(C(=O)c3ccco3)CC2)c(=O)[nH]c1=O [CBK144472] | 87.7
28 | O[C@@H]1C[C@@H](c2nc(-c3cccnc3)no2)N(Cc2cccs2)C1 [CBK288840] | 111
29 | CC(C)c1ccc(NC(=O)C2=NNC(=O)CC2)cc1 [CBK057421] | 96.5
30 | Cc1cccc2c1ncn1c(=O)n(CC(=O)Nc3cccc(Cl)c3)nc21 [CBK287815] | 81.8
31 | Cc1c(C(C)NCC(O)c2ccncc2)cnn1-c1ccc(C#N)cc1 (stereo not shown) [CBK305403] | 85
32 | COc1ccc([C@@]23CC[C@@H](NC(=O)Cc4ccc(Cl)cc4)CC2N(C)CC3)cc1OC (stereo partly shown) [CBK074971T] | 96
33 | CCSc1nnc(NC(=O)c2cnc(SC)nc2CC)s1 [CBK291250] | 101
34 | O=C(c1ccco1)N1CCN(c2ccc(-c3cccc(Cl)c3Cl)cn2)CC1 [CBK037737] | 95.4
35 | Cc1nn(CC(=O)N2CCCCCC2)c(=O)c2cc3ccsc3n12 [CBK284060] | 84.8
36 | CC(C)c1ccc(NC(=O)CN2CCN(c3ccc(C(F)(F)F)cn3)CC2)cc1 [CBK086000] | 81.9
37 | Cc1ccc2nc(Nc3nc(C)cc(C)n3)[nH]c2c1 [CBK263634] | 97.9
38 | Cc1ccc(O)c(NC(=S)NC(=O)COc2ccccc2)c1 [CBK264373] | 106
39 | Cc1ccc(NC(=O)c2ccccc2OCC(=O)NC23CC4CC(CC(C4)C2)C3)cc1Cl [CBK265091] | 101
40 | NCCCC(C(=O)O)C(=O)c1ccccc1-c1ccccc1 (stereo not shown) [CBK286941] | 99.2
41 | N#C/C(=C\C=C\c1ccc([N+](=O)[O-])cc1)c1nc(-c2cc3cc([N+](=O)[O-])ccc3oc2=O)cs1 [CBK262357] | 93.7
42 | CS(=O)(=O)N1CCC(C(=O)NC(c2ccccc2)c2ccccc2)CC1 [CBK269801] | 77.8
43 | CC(C)(C)c1cc(-c2nc3ccccc3[nH]2)c(O)c(-c2nc3ccccc3[nH]2)c1 [CBK266084] | 90
44 | O=C(c1ccccc1)N1CCN(c2ccc(-n3cccn3)nn2)CC1 [CBK287662] | 92.2

Row | Compound | viability at 28.5 h, 10 µM [%]
45 | CC[C@@H](Cn1ncc2ccccc2c1=O)NC(=O)CC1c2ccccc2Oc2ccccc21 [CBK286174] | 89.5
46 | Cc1nc[nH]c1CN(CCCn1ccnc1)CC1CC=CCC1 (stereo not shown) [CBK283218] | 83
47 | Cc1cccnc1C(NC(=O)C1CCN(CCOc2ccccc2)CC1)c1ccc(F)cc1 (stereo not shown) [CBK147892] | 91.8
48 | CCOc1cc(C2CC(=O)NC(SCC(=O)Nc3cccc(C(F)(F)F)c3)=C2C#N)ccc1O (stereo not shown) [CBK265778] | 104
49 | CC(C)CN1CCC2(CC=CCN(Cc3ccc(F)cc3)C2=O)CC1 [CBK285521] | 116
50 | COc1nc(N)nc2c1ncn2C1OC(CO)C(O)C1O (stereo not shown) [CBK201271] | 91.6
51 | CC1(C)[C@H](Cc2cc(CC3CCCCC3)on2)C[C@@H]1NC(=O)C1CCCC1 [CBK289256] | 84.7
52 | CC(Cn1cncn1)NS(=O)(=O)c1cccc(C(=O)N2CCCCC2)c1 (stereo not shown) [CBK306594] | 86.7
53 | O=C(Nc1ccc2nonc2c1)N1CCOCC1 [CBK057530] | 90.8
54 | COc1ccc2c(c1)CCc1sc(NS(=O)(=O)c3cccc(Cl)c3C)nc1-2 [CBK200033] | 84.3
55 | COc1ccc(NC(=O)CC(CN(C)Cc2ccccc2)C(=O)O)cc1 (stereo not shown) [CBK286854] | 93.5
56 | CC(C)(C)c1ccc(C(=O)Nc2cnn(CCCC(=O)O)c2)cc1 [CBK269929] | 94.2
57 | Cn1c(=O)n(CC(=O)N2CCc3ccccc32)c2cccnc21 [CBK283792] | 106
58 | Cn1ccnc1C(NC(=O)c1cccnc1)c1ccc(F)c(F)c1 (stereo not shown) [CBK283807] | 100
59 | OCCN1CCN(c2nccc(C(F)(F)F)n2)CC1 [CBK028754] | 107
60 | CCOc1ccc(S(=O)(=O)N2CCCCC2)cc1-c1nc2c(C(C)(C)C)nn(C)c2c(=O)[nH]1 [CBK265119] | 113
61 | Cc1ccc2nsnc2c1NC(=O)Cc1cccc2ccccc12 [CBK266279] | 98.8
62 | NS(=O)(=O)c1ccc(CN2CCCC2=O)cc1 [CBK288420] | 108
63 | CC(C)C[C@@H]1N[C@H](C(=O)NC2CC2)Cc2cn(Cc3nccn3C)c3cccc1c23 [CBK289423] | 108
64 | CC1CN(Cc2nc3c(c(=O)n(C)c(=O)n3C)n2CCCc2ccccc2)CC(C)O1 (stereo not shown) [CBK269349] | 91.7
